Results from patent US20230151046A1, “5-POSITION MODIFIED PYRIMIDINES” (Nuclera Nucleics Ltd., priority 2020, published 2023).
Each block holds one molecule with its values, some of them ahead of it.

How the values were obtained:
[1] = Stability test of 2′-deoxycytidine and 2′-deoxy-5-fluorocytidine to methoxylamine (1× ORS), LC/MS; type: physicochemical; conditions: 1× ORS (methoxylamine, pH 5.5 acetate), room temperature (FIG. 9)
Experimental: Stability Test of 2′-Deoxycytidine and 2′-Deoxy-5-Fluorocytidine to methoxylamine Oxime removal solution buffer (2× ORS) was prepared from methyoxylamine hydrochloride (60 mg, 0.71 mmol), water (200 μL), pH 5.5 sodium acetate (200 μL) and 10 M sodium hydroxide (53.4 μL) and additional water (1.4 mL). A previously frozen sample of this buffer was further diluted with water by a factor of two to yield 1× ORS. Samples of 2′-deoxycytidine (˜0.5 mg) and 2′-deoxy-5-fluorocytidine (˜0.5 mg) were dissolved in 1 mL aliquots of the buffer. The samples were analysed by LC/MS immediately after making up the samples and at intervals while stored together at room temperature. Appearance of the reaction products 2′-deoxy-4(N)-methoxy cytidine (1) and 2′-deoxy-4(N)-methoxy-5-fluorocytidine (2) and a corresponding loss of starting material was observed. The corresponding loss of starting material relative to the reaction products is plotted on the graph below.
HPLC Method for LC/MS Analysis

[2] = Stability of 5-position modified 2′-deoxycytidine nucleosides to nitrite solution (nitrite-mediated deamination), LC-MS time course; type: physicochemical
Experimental: A series of 5-position modified nucleosides were tested. Each was incubated at room temperature in 700 mM NaNO2, 1 M acetate buffer pH 5.5 and the stability assayed by LC-MS over a time course. […] Electron withdrawing substituents such as the fluoro or alkynyl substituents increase stability. Electron donating substituents such as methyl and hydroxymethyl decrease stability.
LC-MS was used to monitor nucleosides throughout a time course of incubation in 700 mM sodium nitrite at pH 5.5. Integration of UV chromatograms was performed, and the percentage of starting nucleoside plotted.
In addition to monitoring the persistence of the starting material UV peak, the deamination products can be monitored. Deamination products were identified by their mass signals and appearance under nitrite incubation (FIG. 5).

stability to methoxylamine treatment relative to canonical dC [1]: ~10 ×
rate of nitrite-mediated deamination, fold lower than the canonical deoxycytidine analogue ([2]; 700 mM pH 5.5 nitrite, room temperature (FIG. 1)): 4 fold
Structure (SMILES): Nc1nc(=O)n([C@H]2C[C@H](O)[C@@H](CO)O2)cc1F [5-fluoro-2′-deoxycytidine]

rate of nitrite-mediated deamination, fold greater than the canonical deoxycytidine analogue ([2]; 700 mM pH 5.5 nitrite, room temperature (FIG. 2)): 2 fold
Structure (SMILES): Cc1cn([C@H]2C[C@H](O)[C@@H](CO)O2)c(=O)nc1N [5-methyl-2′deoxycytidine, reference compound]

stability to nitrite solution (in words) ([2]; 700 mM NaNO2, 1 M acetate buffer pH 5.5, room temperature, relative to parent deoxycytidine): increased stability
Structure (SMILES): CC#Cc1cn([C@H]2C[C@H](O)[C@@H](CO)O2)c(=O)nc1N [5-propynyl, 5-propynyl-2′-deoxycytidine]
